This test has as its system KYSE-150 esophageal carcinoma cell line. The test can be described thus: In vitro cell-based assay: cellular proliferation via BrdU incorporation. The following applies: Homo sapiens; KYSE-150 cells, BrdU incorporation after 168 hr compound incubation. The method, then: Cell lines tested include the JMJD2C gene amplified cell line KYSE-150. This is a quantitative ELISA assay measuring DNA incorporation of BrdU during S-phase as a direct readout of cellular proliferation.
Assay Principle: This is a colorimetric immunoassay for the quantification of cell proliferation. Cells treated for 168 hours with test compounds are assayed for their ability to go through S-phase as a measure of their proliferative potential.
Assay Method: The human KYSE-150 (SMAD4 mut, TP53 mut) esophageal carcinoma cell line was seeded at 2,000 cells/well on a 96-well tissue culture treated plate. After an overnight incubation, cells were treated with compound in an […] dilution series with final concentrations ranging from 100 μM to 2 nM. Cells were then incubated in the presence of compound for 168 hr. After compound incubation the cells were assayed using a BrdU Cell Proliferation ELISA (Roche). The cells were first incubated with BrdU labeling reagent for 2 hr. After 2 hr, the BrdU incorporated cells were fixed and denatured, probed with an anti-BrdU-Peroxidase antibody for 1.5 hr and washed. Finally, a tetramethylbenzidine peroxidase substrate was added to each well for 15 min followed by a H2SO4 stop solution. The plate was read at 450 nm, and the raw optical density data was transferred into XLFit (IDBS) for IC50 calculation using the formula: fit=(D+((Vmax*(x^n))/((x^n)+(Km^n))))

Compound `COC(=O)c1ccnc2cc(-c3c4cc(Cl)ccc4nn3CCN3CCCC3)[nH]c12` [Example 10d, Methyl 2-{5-chloro-2-[2-(pyrrolidin-1-yl)ethyl]-2H-indazol-3-yl}-1H-pyrrolo[3,2-b]pyridine-7-carboxylate] had a 50% inhibitory concentration (IC50) greater than 10 µM.
Next, `CN(c1ccccc1)c1ccc2c(-c3cc4nccc(C(=O)O)c4[nH]3)n(C)nc2c1` [Example 11, 2-{2-Methyl-6-[methyl(phenyl)amino]-2H-indazol-3-yl}-1-H-pyrrolo[3,2-b]pyridine-7-carboxylic Acid]: no more than 0.1 µM; `Cn1nc(-c2cc3nccc(C(=O)O)c3[nH]2)c2ccc(F)cc21` [Example 16, 2-(6-Fluoro-1-methyl-1H-indazol-3-yl)-1H-pyrrolo[3,2-b]pyridine-7-carboxylic Acid]: greater than 10 µM.
